{"source": "patent US20250127175A1", "about": "“ANTIMICROBIAL POLYMER COMPOSITIONS, ANTIMICROBIAL POLYMER ARTICLES, AND METHODS OF MAKING THE SAME” (CORNING INCORPORATED, priority 2021, published 2025)", "origin": "cited, not measured here", "conditions": "water-soluble defined as minimum of 20 grams in 100 milliliters of water at 25° C."}
{"smiles": "CCCCn1cc[n+](C)c1.F[P-](F)(F)(F)(F)F", "note": "[1-butyl-3-methylimidazolium hexafluorophosphate]", "values": [{"measurement": "water solubility (in words)", "result": "water insoluble"}]}
